This is an account of results in patent publication US9409975B2, “Antibody binding microbial heparin binding motif to retard or prevent microbial biofilm formation on implanted medical devices” (priority 2012, dated 2016).

Entries after “also recorded” stand apart in the source; their conditions may differ.

The assay concerns Candida albicans BWP17 wt planktonic growth. Put plainly: Growth curves and doubling times in presence or absence of soluble heparin. The conditions noted are these: 100 units/ml heparin. Type of assay: cell-based. On the procedure: For growth curves in the presence or absence of soluble heparin, a single colony of BWP17 wt was inoculated into 3 ml YPD medium and incubated overnight at 30° C. with shaking at 225 rpm. Overnight cultures were diluted to an OD600 of 0.1 in 5 ml of YPD, RPMI-MOPS, RPMI-HEPES or CSM in a 50 ml conical polypropylene tube. Preservative-free pharmaceutical heparin (1000 units/ml) was added to yield a final concentration of 100 units/ml in the heparin-treated samples. Cultures were grown at 30° C. with shaking and OD600 measured periodically. Doubling times (td) were calculated based on the equation td=ln 2/μ (μ=specific growth rate (48). One hundred units/ml heparin, the concentration recommended to prevent clotting of central venous catheters (20), had no effect on doubling times of planktonic yeast cells grown in YPD, RPMI-HEPES, RPMI-MOPS or CSM, as shown in FIGS. 2A and 2B.
A single copy of Int1, including 1450 bp upstream and 548 bp downstream from the Int1 open reading frame (www.candidagenome.org, Assembly 21), was integrated into the hisG locus of the int1−/− strain VBIDM2 (54) to produce the reconstituted strain KO509. Briefly, a copy of Int1 was generated by PCR, using primers 1 and 2 with BWP17 wt DNA as template and cloned into the SacI/MluI sites of pGEMHIS (51) to create pKO509. pKO509 was digested with SwaI and transformed into VBIDM2 to create the reconstituted strain KO509. PCR-mediated overlap extension mutagenesis (55) was used to produce copies of Int1 mutated at putative heparin binding domains. Briefly, primer pairs 1+3 and 2+4 (or 1+5 and 2+6) were used to produce two overlapping fragments of INT1 in which putative heparin binding domains were mutated (FKKRFFKL (SEQ ID NO: 2)→FKAAFFKL (SEQ ID NO: 53) or KQKKHQ (SEQ ID NO: 64)→KQAAHQ (SEQ ID NO: 63)), and a full length mutated sequence generated in a third […] using primers 1+2 with the fragments as template. […] Percent binding of each mutant to heparin in the ELISA assay was compared to the wild type according to the formula [Absorbance595 mutant]/[Absorbance595 wild type]×100.

heparin: the “growth curves in presence or absence of soluble heparin” value was “identical”. Also, the “doubling times of wild type, Δint1 mutant, INT1 reintegrant and Motif 1, Motif 4, Motifs 1 and 4 reintegrants with and without heparin” value (30° C., RPMI-HEPES) is recorded as “no difference”. Also, the “effect on doubling times of planktonic yeast cells” value (30° C., YPD, RPMI-HEPES, RPMI-MOPS or CSM) is on record as “no effect; also recorded: identical”.
